Earlier results, collected in patent US12357549B2, “Method for dyeing keratinous material, comprising the use of an organosilicon compound, a dyeing compound, a sealing reagent, and a pre-treatment agent” (Henkel AG & Co. KGaA, priority 2021, dated 2025).

Settings: 25° C.

SMILES	solubility in water	further results
CCN(Cc1cccc(S(=O)(=O)[O-])c1)c1ccc(C(=C2C=CC(=[N+](CC)Cc3cccc(S(=O)(=O)[O-])c3)C=C2)c2ccccc2S(=O)(=O)[O-])cc1.[Na+].[Na+] [Acid Blue 9]	–	water solubility: more than 20 wt %
O=S(=O)([O-])c1ccc(N=Nc2c(O)ccc3ccccc23)cc1.[Na+] [Acid Orange 7, sodium salt of 4-[(2-hydroxy-1-naphthyl)azo]benzenesulfonate]	more than 7 g/L	–
Nc1cc(S(=O)(=O)[O-])cc2cc(S(=O)(=O)[O-])c(N=Nc3ccccc3)c(O)c12.[Na+].[Na+] [Acid Red 33, disodium salt of 5-amino-4-hydroxy-3-(phenylazo)-naphthalene-2,7-disulfonate]	2500 µg/mL	–
O=C([O-])c1c(Cl)c(Cl)c(Cl)c(Cl)c1-c1c2c(Br)cc(=O)c(Br)c-2oc2c(Br)c(O)cc(Br)c12.O=C([O-])c1c(Cl)c(Cl)c(Cl)c(Cl)c1-c1c2c(Br)cc(=O)c(Br)c-2oc2c(Br)c(O)cc(Br)c12.[Na+].[Na+] [Acid Red 92, disodium salt of 3,4,5,6-tetrachloro-2-(1,4,5,8-tetrabromo-6-hydroxy-3-oxoxanthen-9-yl)benzoic acid]	greater than 10 g/L	–
O=C([O-])C1=NN(c2ccc(S(=O)(=O)[O-])cc2)C(=O)C1N=Nc1ccc(S(=O)(=O)[O-])cc1.[Na+].[Na+].[Na+] (centres unmarked) [Acid Yellow 23, trisodium salt of 4,5-dihydro-5-oxo-1-(4-sulfophenyl)-4-((4-sulfophenyl)azo)-1H-pyrazole-3-carboxylic acid]	–	solubility in water (in words): readily soluble in water
